From ChEMBL document CHEMBL3856263, “Sesquiterpenes from the roots of Lindera strychnifolia with inhibitory effects on nitric oxide production in RAW 264.7 cells” (Bioorg Med Chem Lett, 2016) come the findings set out here.

Each structure is given as a SMILES string.

Series [1] in a line: Antiinflammatory activity against LPS-induced mouse RAW264.7 cells assessed as inhibition of NO production pretreated for 1 hr followed by LPS stimulation for 24 hrs by Griess assay. The series is classed as functional, cell-based.
For a further series, the species on record is Mus musculus. Description: Cytotoxicity against mouse RAW264.7 cells at <25 uM by MTT assay. The class given is toxicity, cell-based. On the technique in general: Formazan colour is commonly taken as a measure of viable cells.

In general, IC50 refers to the point on the concentration scale where inhibition reaches its midpoint. As to `C=C1[C@H]2CC3=C(C)C(=O)O[C@H]3C[C@]2(C)[C@H]2C[C@@H]12`, the IC50 in series [1] was determined as 15.4 µM. Besides, the Activity result in the series filed under Mus musculus is reported as “Non-Toxic”.

Consider `COC(=O)/C(C)=C1\C(=O)O[C@]2(C)[C@@H]3C[C@@H]3[C@@](C)(CO)[C@H]2[C@@H]1O`, for which, in series [1], the concentration for half-maximal inhibition (IC50) is greater than 25 µM. The Activity result in the series filed under Mus musculus is listed as “Non-Toxic”. Turning to `C=C1Cc2occ(C)c2C2C=C(CC[C@H]1O)C(=O)O2` (stereo not given in full), in series [1], the half-maximal inhibitory concentration (IC50) was determined as 9 µM. In the series filed under Mus musculus, the Activity result is given as “Non-Toxic”. For `C=C1[C@H]2C[C@H]2[C@]2(C)C[C@]3(O)OC(=O)C(C)=C3[C@H](OC(C)=O)[C@H]12`, the Activity entry in the series filed under Mus musculus was “Non-Toxic”. In the case of `C=C1[C@H]2C[C@H]2[C@]2(C)C[C@@]3(O)OC(=O)C(C)=C3[C@H](OC)[C@H]12`, the IC50 in series [1] stood at 21.6 µM. The Activity entry in the series listed under Mus musculus is on record as “Non-Toxic”.

For the molecule `CC1=C2[C@@H]3OC(=O)[C@@]4(CC/C=C(\C)C[C@@]2(O)OC1=O)O[C@@H]34`, the IC50 in series [1] is greater than 25 µM. In addition, in the series listed under Mus musculus, the Activity result is “Non-Toxic”. Turning to `C=C1CC=C[C@@]2(C)C[C@@]3(O)OC(=O)C(C)=C3C[C@H]12`, in series [1], the half-maximal inhibitory concentration (IC50) was greater than 25 µM. In the series filed under Mus musculus, the Activity entry is on record as “Non-Toxic”. As to `CC(=O)O[C@H]1C2=C(C)C(=O)O[C@@]2(O)C[C@@]2(C)[C@@H]3C[C@@H]3[C@](C)(O)[C@@H]12`, the IC50 in series [1] stood at 12.8 µM. The Activity result in the series filed under Mus musculus is “Non-Toxic”. Turning to `CC1=C2C[C@@H]3[C@@](C)(O)[C@H]4C[C@H]4[C@]3(C)C[C@]2(O)OC1=O`, the IC50 in series [1] is 9.6 µM. Besides, in the series listed under Mus musculus, the Activity result is given as “Non-Toxic”.

For `C=C1[C@H]2C[C@H]2[C@]2(C)C[C@@]3(O)OC(=O)C(C)=C3[C@H](OC(C)=O)[C@H]12`, the Activity entry in the series listed under Mus musculus is on record as “Non-Toxic”. Consider `CC1=C2C[C@@H]3[C@@](C)(O)[C@H]4C[C@H]4[C@]3(C)C[C@@H]2OC1=O`, for which, in the series filed under Mus musculus, the Activity entry is reported as “Non-Toxic”.

For `C=C1[C@H]2C[C@H]2[C@]2(C)C[C@H]3OC(=O)C(C)=C3[C@H](O)[C@H]12`, the IC50 in series [1] came to 12.3 µM. Besides, the Activity result in the series listed under Mus musculus is recorded as “Non-Toxic”. As for `CO[C@@]1(C)[C@H]2C[C@H]2[C@]2(C)C[C@@H]3OC(=O)C(C)=C3C[C@@H]21`, in series [1], the half-inhibitory concentration (IC50) came out at 6.3 µM. For the same molecule, the Activity result in the series filed under Mus musculus is recorded as “Non-Toxic”.

In the case of `CC1=C2C(=O)[C@@H]3[C@](C)(O)[C@H]4C[C@H]4[C@@]3(C)C[C@H]2OC1=O`, the concentration for half-maximal inhibition (IC50) in series [1] came out at 22.5 µM. Also, the Activity result in the series filed under Mus musculus is on record as “Non-Toxic”. Consider `CC1=C2[C@H](O)[C@@H]3[C@@](C)(O)[C@H]4C[C@H]4[C@]3(C)C[C@]2(O)OC1=O`, for which the IC50 in series [1] came out at 14.6 µM. Moreover, the Activity entry in the series listed under Mus musculus was “Non-Toxic”. With `N=C(N)NN` [PIMAGEDINE], the IC50 in series [1] turned out to be 18.4 µM. For `Cc1coc2c1[C@H]1C=C(CC[C@@H]3O[C@@]3(C)C2)C(=O)O1` [PSEUDONEOLINDERANE], in series [1], the 50% inhibitory concentration (IC50) was greater than 25 µM. In addition, in the series listed under Mus musculus, the Activity entry is on record as “Non-Toxic”.
